Experiments:
[1] = Aqueous solubility of compound at pH 8.9; format: physicochemical
[2] = Aqueous solubility of compound at pH 5.4; format: physicochemical
[3] = Aqueous solubility of compound at pH 1.4 after 18 to 24 hrs by RP-HPLC analysis; format: physicochemical
[4] = Lipophilicity, log D of compound in octanol-PBS mixture at pH 6.5 by HPLC-UV analysis; format: physicochemical
[5] = Clearance in Sprague-Dawley rat at 1.4 mg/kg, iv; format: ADME, organism-based; set-up: dose 1.4 mg/kg, route intravenous; conditions: in vivo
[6] = Volume of distribution at steady state in Sprague-Dawley rat at 1.4 mg/kg, iv; format: ADME, organism-based; set-up: dose 1.4 mg/kg, route intravenous; conditions: in vivo, read-out: Vdss
[7] = Half life in Sprague-Dawley rat at 1.4 mg/kg, iv; format: ADME, organism-based; set-up: dose 1.4 mg/kg, route intravenous; conditions: in vivo
[8] = Mean residence time in Sprague-Dawley rat at 1.4 mg/kg, iv; format: ADME, organism-based; set-up: dose 1.4 mg/kg, route intravenous; conditions: in vivo
Rattus norvegicus [9] = assay: Absolute oral bioavailability in Sprague-Dawley rat assessed as BMS-488043 level at 7.9 mg/kg; format: ADME, organism-based; conditions: in vivo
Rattus norvegicus [10] = assay: Cmax in Sprague-Dawley rat assessed as BMS-488043 level at 7.9 mg/kg, po; format: ADME, organism-based; set-up: dose 7.9 mg/kg, route oral; conditions: in vivo
Rattus norvegicus [11] = assay: Tmax in Sprague-Dawley rat assessed as BMS-488043 level at 7.9 mg/kg, po; format: ADME, organism-based; set-up: dose 7.9 mg/kg, route oral; conditions: in vivo
Rattus norvegicus [12] = assay: AUC (total) in Sprague-Dawley rat assessed as BMS-488043 level at 7.9 mg/kg, po; format: ADME, organism-based, Plasma; set-up: dose 7.9 mg/kg, route oral; conditions: in vivo
Rattus norvegicus [13] = assay: Half life in Sprague-Dawley rat assessed as BMS-488043 level at 7.9 mg/kg, po; format: ADME, organism-based; set-up: dose 7.9 mg/kg, route oral; conditions: in vivo
[14] = Clearance in beagle dog at 1.2 mg/kg, iv; format: ADME, organism-based, Canis lupus familiaris; set-up: dose 1.2 mg/kg, route intravenous; conditions: in vivo
[15] = Volume of distribution at steady state in beagle dog at 1.2 mg/kg, iv; format: ADME, organism-based, Canis lupus familiaris; set-up: dose 1.2 mg/kg, route intravenous; conditions: in vivo, read-out: Vdss
[16] = Half life in beagle dog at 1.2 mg/kg, iv; format: ADME, organism-based, Canis lupus familiaris; set-up: dose 1.2 mg/kg, route intravenous; conditions: in vivo
[17] = Mean residence time in beagle dog at 1.2 mg/kg, iv; format: ADME, organism-based, Canis lupus familiaris; set-up: dose 1.2 mg/kg, route intravenous; conditions: in vivo
Canis familiaris [18] = assay: Absolute oral bioavailability in beagle dog assessed as BMS-488043 level at 6.6 mg/kg; format: ADME, organism-based, Canis lupus familiaris; conditions: in vivo
Canis familiaris [19] = assay: Cmax in beagle dog assessed as BMS-488043 level at 6.6 mg/kg, po; format: ADME, organism-based, Canis lupus familiaris; set-up: dose 6.6 mg/kg, route oral; conditions: in vivo
Canis familiaris [20] = assay: Tmax in beagle dog assessed as BMS-488043 level at 6.6 mg/kg, po; format: ADME, organism-based, Canis lupus familiaris; set-up: dose 6.6 mg/kg, route oral; conditions: in vivo
Canis familiaris [21] = assay: AUC (total) in beagle dog assessed as BMS-488043 level at 6.6 mg/kg, po; format: ADME, organism-based, Canis lupus familiaris, Plasma; set-up: dose 6.6 mg/kg, route oral; conditions: in vivo
Canis familiaris [22] = assay: Half life in beagle dog assessed as BMS-488043 level at 6.6 mg/kg, po; format: ADME, organism-based, Canis lupus familiaris; set-up: dose 6.6 mg/kg, route oral; conditions: in vivo
[23] = Clearance in cynomolgus monkey at 1.3 mg/kg, iv; format: ADME, organism-based, Macaca fascicularis; set-up: dose 1.3 mg/kg, route intravenous; conditions: in vivo
[24] = Volume of distribution at steady state in cynomolgus monkey at 1.3 mg/kg, iv; format: ADME, organism-based, Macaca fascicularis; set-up: dose 1.3 mg/kg, route intravenous; conditions: in vivo, read-out: Vdss
[25] = Half life in cynomolgus monkey at 1.3 mg/kg, iv; format: ADME, organism-based, Macaca fascicularis; set-up: dose 1.3 mg/kg, route intravenous; conditions: in vivo
[26] = Mean residence time in cynomolgus monkey at 1.3 mg/kg, iv; format: ADME, organism-based, Macaca fascicularis; set-up: dose 1.3 mg/kg, route intravenous; conditions: in vivo
Cynomolgus monkey [27] = assay: Absolute oral bioavailability in cynomolgus monkey assessed as BMS-488043 level at 7.1 mg/kg; format: ADME, organism-based, Macaca fascicularis; conditions: in vivo
Cynomolgus monkey [28] = assay: Cmax in cynomolgus monkey assessed as BMS-488043 level at 7.1 mg/kg, po; format: ADME, organism-based, Macaca fascicularis; set-up: dose 7.1 mg/kg, route oral; conditions: in vivo
Cynomolgus monkey [29] = assay: Tmax in cynomolgus monkey assessed as BMS-488043 level at 7.1 mg/kg, po; format: ADME, organism-based, Macaca fascicularis; set-up: dose 7.1 mg/kg, route oral; conditions: in vivo
Cynomolgus monkey [30] = assay: AUC (total) in cynomolgus monkey assessed as BMS-488043 level at 7.1 mg/kg, po; format: ADME, organism-based, Macaca fascicularis, Plasma; set-up: dose 7.1 mg/kg, route oral; conditions: in vivo
Cynomolgus monkey [31] = assay: Half life in cynomolgus monkey assessed as BMS-488043 level at 7.1 mg/kg, po; format: ADME, organism-based, Macaca fascicularis; set-up: dose 7.1 mg/kg, route oral; conditions: in vivo
[32] = Cmax in healthy human at 25 mg, po administered with high fat meal; format: ADME, organism-based; set-up: dose 25 mg, route oral; conditions: in vivo
[33] = Cmax in healthy human at 50 mg, po administered with high fat meal; format: ADME, organism-based; set-up: dose 50 mg, route oral; conditions: in vivo
[34] = Cmax in healthy human at 100 mg, po administered with high fat meal; format: ADME, organism-based; set-up: dose 100 mg, route oral; conditions: in vivo
[35] = Cmax in healthy human at 200 mg, po administered with high fat meal; format: ADME, organism-based; set-up: dose 200 mg, route oral; conditions: in vivo
[36] = Cmax in healthy human at 400 mg, po administered with high fat meal; format: ADME, organism-based; set-up: dose 400 mg, route oral; conditions: in vivo
[37] = Cmax in healthy human at 800 mg, po administered with high fat meal; format: ADME, organism-based; set-up: dose 800 mg, route oral; conditions: in vivo
[38] = Tmax in healthy human at 25 mg, po administered with high fat meal; format: ADME, organism-based; conditions: in vivo
[39] = Tmax in healthy human at 50 mg, po administered with high fat meal; format: ADME, organism-based; conditions: in vivo
[40] = Tmax in healthy human at 100 mg, po administered with high fat meal; format: ADME, organism-based; conditions: in vivo
[41] = Tmax in healthy human at 200 mg, po administered with high fat meal; format: ADME, organism-based; conditions: in vivo
[42] = Tmax in healthy human at 400 mg, po administered with high fat meal; format: ADME, organism-based; conditions: in vivo
[43] = Tmax in healthy human at 800 mg, po administered with high fat meal; format: ADME, organism-based; conditions: in vivo
[44] = Half life in healthy human at 25 mg, po administered with high fat meal; format: ADME, organism-based; conditions: in vivo
[45] = Half life in healthy human at 50 mg, po administered with high fat meal; format: ADME, organism-based; conditions: in vivo
[46] = Half life in healthy human at 100 mg, po administered with high fat meal; format: ADME, organism-based; conditions: in vivo
[47] = Half life in healthy human at 200 mg, po administered with high fat meal; format: ADME, organism-based; conditions: in vivo
[48] = Half life in healthy human at 400 mg, po administered with high fat meal; format: ADME, organism-based; conditions: in vivo
[49] = Half life in healthy human at 800 mg, po administered with high fat meal; format: ADME, organism-based; conditions: in vivo
[50] = AUC (infinity) in healthy human at 25 mg, po administered with high fat meal; format: ADME, organism-based; set-up: dose 25 mg, time infinity, route oral; conditions: plasma
[51] = AUC (infinity) in healthy human at 50 mg, po administered with high fat meal; format: ADME, organism-based; set-up: dose 50 mg, time infinity, route oral; conditions: plasma
[52] = AUC (infinity) in healthy human at 100 mg, po administered with high fat meal; format: ADME, organism-based; set-up: dose 100 mg, route oral, time infinity; conditions: plasma
[53] = AUC (infinity) in healthy human at 200 mg, po administered with high fat meal; format: ADME, organism-based; set-up: dose 200 mg, route oral, time infinity; conditions: plasma
[54] = AUC (infinity) in healthy human at 400 mg, po administered with high fat meal; format: ADME, organism-based; set-up: dose 400 mg, time infinity, route oral; conditions: plasma
[55] = AUC (infinity) in healthy human at 800 mg, po administered with high fat meal; format: ADME, organism-based; set-up: dose 800 mg, time infinity, route oral; conditions: plasma
Plasma [56] = assay: Plasma concentration in healthy human at 25 mg, po administered with high fat meal measured after 12 hrs; format: ADME, organism-based; conditions: in vivo, BLD = below limit of detection
Plasma [57] = assay: Plasma concentration in healthy human at 50 mg, po administered with high fat meal measured after 12 hrs; format: ADME, organism-based; conditions: in vivo, BLD = below limit of detection
[58] = Plasma concentration in healthy human at 100 mg, po administered with high fat meal measured after 12 hrs; format: ADME, organism-based
[59] = Plasma concentration in healthy human at 200 mg, po administered with high fat meal measured after 12 hrs; format: ADME, organism-based
[60] = Plasma concentration in healthy human at 400 mg, po administered with high fat meal measured after 12 hrs; format: ADME, organism-based
[61] = Plasma concentration in healthy human at 800 mg, po administered with high fat meal measured after 12 hrs; format: ADME, organism-based
[62] = Dissociation constant, pKa of compound; format: physicochemical

A solubility [1] greater than 12000 µg/mL, a solubility [2] greater than 12000 µg/mL and a solubility [3] of 220 µg/mL were found for `COc1cnc(OC)c2c1c(C(=O)C(=O)N1CCN(C(=O)c3ccccc3)CC1)cn2COP(=O)(O)O.NCCCC[C@H](N)C(=O)O` in this work. It also gave a logD [4] of less than -1, a clearance [5] of 14 mL/min/kg and a Vd [6] of 0.12 L/kg. The half-life [7] was 9.6 min, the MRT [8] was 8.4 min and the F (Rattus norvegicus [9]) was 62%. For the same compound, the Cmax (Rattus norvegicus [10]) was 3.94 µM, the Tmax (Rattus norvegicus [11]) was 49.8 min and the AUC (Rattus norvegicus [12]) was 13.168 µM·h. For the same compound, the t1/2 (Rattus norvegicus [13]) was 90 min, the clearance [14] was 70 mL/min/kg and the Vd [15] was 0.3 L/kg. The half-life [16] was 9 min, the MRT [17] was 4.2 min and the F (Canis familiaris [18]) was 93%. It also gave a Cmax (Canis familiaris [19]) of 14 µM, a Tmax (Canis familiaris [20]) of 15 min and an AUC (Canis familiaris [21]) of 82.844 µM·h. It also gave a t1/2 (Canis familiaris [22]) of 246 min, a clearance [23] of 4.4 mL/min/kg and a Vd [24] of 0.048 L/kg. It also gave a half-life [25] of 60 min, an MRT [26] of 10.8 min and an F (Cynomolgus monkey [27]) of 67%. The Cmax (Cynomolgus monkey [28]) was 16.4 µM, the Tmax (Cynomolgus monkey [29]) was 49.8 min and the AUC (Cynomolgus monkey [30]) was 34.183 µM·h. It also gave a t1/2 (Cynomolgus monkey [31]) of 288 min, a Cmax [32] of 784 ng/mL and a Cmax [33] of 1370 ng/mL. For the same compound, the Cmax [34] was 3650 ng/mL, the Cmax [35] was 8420 ng/mL and the Cmax [36] was 12900 ng/mL. It also gave a Cmax [37] of 26800 ng/mL, a Tmax [38] of 30 min and a Tmax [39] of 30 min. It also gave a Tmax [40] of 30 min, a Tmax [41] of 30 min and a Tmax [42] of 37.8 min. For the same compound, the Tmax [43] was 60 min, the half-life [44] was 60 min and the half-life [45] was 84 min. It also gave a half-life [46] of 114 min, a half-life [47] of 402 min and a half-life [48] of 780 min. It also gave a half-life [49] of 660 min, an AUC(0-inf) [50] of 1160 ng·h/mL and an AUC(0-inf) [51] of 2150 ng·h/mL. It also gave an AUC(0-inf) [52] of 5730 ng·h/mL, an AUC(0-inf) [53] of 14200 ng·h/mL and an AUC(0-inf) [54] of 26200 ng·h/mL. For the same compound, the AUC(0-inf) [55] was 64100 ng·h/mL, the Cp (Plasma [56]) was “BLD” and the Cp (Plasma [57]) was “BLD”. The concentration at 12 h [58] was 12 ng/mL, the concentration at 12 h [59] was 33 ng/mL and the concentration at 12 h [60] was 59 ng/mL. It also gave a concentration at 12 h [61] of 150 ng/mL and a pKa [62] of 2.2.

From ChEMBL document CHEMBL2163239, “Inhibitors of human immunodeficiency virus type 1 (HIV-1) attachment 6. Preclinical and human pharmacokinetic profiling of BMS-663749, a phosphonooxymethyl prodrug of the HIV-1 attachment inhibitor 2-(4-benzoyl-1-piperazinyl)-1-(4,7-dimethoxy-1H-pyrrolo[2,3-c]pyridin-3-yl)-2-oxoethanone …” (J Med Chem, 2012)
